Earlier results, collected in paper PMC10147685, “Safety, tolerability, and pharmacokinetics of Aurora kinase B inhibitor AZD2811: a phase 1 dose-finding study in patients with advanced solid tumours” (British Journal of Cancer, 2023).

What was measured:
[1] = tested on: patients with advanced solid tumours; design: method as in PMID 27349901; conditions: cited from earlier work
[2] = tested on: advanced solid tumours; design: method as in PMID 22661287; conditions: cited from earlier work

Row | Compound | Objective responses [1] | Patients with SD ([1]; depending on the treatment schedule) | Objective responses [2] | Patients with SD [2] [%]
1 | CC(C)NC(=O)[C@H]1CCC[C@H]1Nc1nc(Nc2ccc(C(=O)N(C)C3CCN(C)CC3)cc2)ncc1C(F)(F)F [BI 811283] | no objective responses | 30–33% | – | –
2 | CCN(CCCOc1ccc2c(Nc3cc(CC(=O)Nc4cccc(F)c4)n[nH]3)ncnc2c1)CCOP(=O)(O)O [barasertib] | – | – | no objective responses | 23
